Measurements published in the supplement of paper PMC10307832.

Key:
Assay in all cases: relative viability (nuclei count vs DMSO), 5 days (fraction); higher = more cells survive
NCI-H2085 = test system: NCI-H2085
Outline: (§1)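 Lung cancer cell lines, seeded in 1536-well plates, were treated the following day by pin tool with a single drug or with five library-drug doses (not always all listed) in √10 steps on top of a fixed anchor-drug dose. Cells were fixed and nuclei stained in one step after 5 days, and nuclei were counted. Relative viability is the nuclei count for treated wells divided by that for vehicle wells, reported as medians of duplicate plates.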

ABC-1 = test system: ABC-1
Outline: as §1

LU99A = test system: LU99A
Outline: as §1

NCI-H838 = test system: NCI-H838
Outline: as §1

LC-2-ad = test system: LC-2-ad
Outline: as §1

EPLC-272H = test system: EPLC-272H
Outline: as §1

NCI-H2023 = test system: NCI-H2023
Outline: as §1

NCI-H1355 = test system: NCI-H1355
Outline: as §1

SW 1573 = test system: SW 1573
Outline: as §1

NCI-H2347 = test system: NCI-H2347
Outline: as §1

NCI-H2126 = test system: NCI-H2126
Outline: as §1

NCI-H650 = test system: NCI-H650
Outline: as §1

COR-L23 = test system: COR-L23
Outline: as §1

HARA = test system: HARA
Outline: as §1

HCC-78 = test system: HCC-78
Outline: as §1

NCI-H1993 = test system: NCI-H1993
Outline: as §1

HCC-15 = test system: HCC-15
Outline: as §1

PC-14 = test system: PC-14
Outline: as §1

NCI-H358 = test system: NCI-H358
Outline: as §1

UMC-11 = test system: UMC-11
Outline: as §1

NCI-H1651 = test system: NCI-H1651
Outline: as §1

NCI-H1915 = test system: NCI-H1915
Outline: as §1

For NC(=O)Nc1cc(-c2cccc(F)c2)sc1C(=O)N[C@H]1CCCNC1 [AZD7762] + C[C@]1(O)C[C@@H](c2nc(-c3ccc4ccc(-c5ccccc5)nc4c3)c3c(N)nccn32)C1 [Linsitinib] (partner 1 µM), the relative viability (NCI-H2085; first compound 0.01 µM) was 1.03, the relative viability (NCI-H2085; first compound 0.03162 µM) was 0.885 and the relative viability (NCI-H2085; first compound 0.1 µM) was 0.874. It also gave a relative viability (NCI-H2085; first compound 0.3162 µM) of 0.948, a relative viability (NCI-H2085; first compound 1 µM) of 0.693 and a relative viability (ABC-1; first compound 0.01 µM) of 1.08. It also gave a relative viability (ABC-1; first compound 0.03162 µM) of 0.839, a relative viability (ABC-1; first compound 0.1 µM) of 0.925 and a relative viability (ABC-1; first compound 0.3162 µM) of 0.409. It also gave a relative viability (ABC-1; first compound 1 µM) of 0.278, a relative viability (LU99A; first compound 0.01 µM) of 0.612 and a relative viability (LU99A; first compound 0.03162 µM) of 0.568. The relative viability (LU99A; first compound 0.1 µM) was 0.526, the relative viability (LU99A; first compound 0.3162 µM) was 0.432 and the relative viability (LU99A; first compound 1 µM) was 0.397. It also gave a relative viability (NCI-H838; first compound 0.01 µM) of 0.982, a relative viability (NCI-H838; first compound 0.03162 µM) of 1.01 and a relative viability (NCI-H838; first compound 0.1 µM) of 0.942. It also gave a relative viability (NCI-H838; first compound 0.3162 µM) of 0.978, a relative viability (NCI-H838; first compound 1 µM) of 0.627 and a relative viability (LC-2-ad; first compound 0.01 µM) of 0.854. The relative viability (LC-2-ad; first compound 0.03162 µM) was 0.929, the relative viability (LC-2-ad; first compound 0.1 µM) was 0.787 and the relative viability (LC-2-ad; first compound 0.3162 µM) was 0.674. It also gave a relative viability (LC-2-ad; first compound 1 µM) of 0.437, a relative viability (EPLC-272H; first compound 0.01 µM) of 1.15 and a relative viability (EPLC-272H; first compound 0.03162 µM) of 1.28. For the same molecule, the relative viability (EPLC-272H; first compound 0.1 µM) was 1.23, the relative viability (EPLC-272H; first compound 0.3162 µM) was 1.19 and the relative viability (EPLC-272H; first compound 1 µM) was 0.871. For the same molecule, the relative viability (NCI-H2023; first compound 0.01 µM) was 0.619, the relative viability (NCI-H2023; first compound 0.03162 µM) was 0.485 and the relative viability (NCI-H2023; first compound 0.1 µM) was 0.387. For the same molecule, the relative viability (NCI-H2023; first compound 0.3162 µM) was 0.21, the relative viability (NCI-H2023; first compound 1 µM) was 0.0864 and the relative viability (NCI-H1355; first compound 0.01 µM) was 0.805. It also gave a relative viability (NCI-H1355; first compound 0.03162 µM) of 0.811, a relative viability (NCI-H1355; first compound 0.1 µM) of 0.766 and a relative viability (NCI-H1355; first compound 0.3162 µM) of 0.859. It also gave a relative viability (NCI-H1355; first compound 1 µM) of 0.762, a relative viability (SW 1573; first compound 0.01 µM) of 0.843 and a relative viability (SW 1573; first compound 0.03162 µM) of 0.989. It also gave a relative viability (SW 1573; first compound 0.1 µM) of 0.99, a relative viability (SW 1573; first compound 0.3162 µM) of 0.891 and a relative viability (SW 1573; first compound 1 µM) of 0.752. It also gave a relative viability (NCI-H2347; first compound 0.01 µM) of 1.09, a relative viability (NCI-H2347; first compound 0.03162 µM) of 1.01 and a relative viability (NCI-H2347; first compound 0.1 µM) of 1.15. For the same molecule, the relative viability (NCI-H2347; first compound 0.3162 µM) was 1.1, the relative viability (NCI-H2347; first compound 1 µM) was 1.04 and the relative viability (NCI-H2126; first compound 0.01 µM) was 0.711. For the same molecule, the relative viability (NCI-H2126; first compound 0.03162 µM) was 0.758, the relative viability (NCI-H2126; first compound 0.1 µM) was 0.763 and the relative viability (NCI-H2126; first compound 0.3162 µM) was 0.706. For the same molecule, the relative viability (NCI-H2126; first compound 1 µM) was 0.805, the relative viability (NCI-H650; first compound 0.01 µM) was 1.01 and the relative viability (NCI-H650; first compound 0.03162 µM) was 0.984. It also gave a relative viability (NCI-H650; first compound 0.1 µM) of 0.842, a relative viability (NCI-H650; first compound 0.3162 µM) of 0.843 and a relative viability (NCI-H650; first compound 1 µM) of 0.811. It also gave a relative viability (COR-L23; first compound 0.01 µM) of 1.11, a relative viability (COR-L23; first compound 0.03162 µM) of 0.916 and a relative viability (COR-L23; first compound 0.1 µM) of 0.98. For the same molecule, the relative viability (COR-L23; first compound 0.3162 µM) was 0.799, the relative viability (COR-L23; first compound 1 µM) was 0.18 and the relative viability (HARA; first compound 0.01 µM) was 0.961. For the same molecule, the relative viability (HARA; first compound 0.03162 µM) was 0.934, the relative viability (HARA; first compound 0.1 µM) was 0.847 and the relative viability (HARA; first compound 0.3162 µM) was 0.854. The relative viability (HARA; first compound 1 µM) was 0.617, the relative viability (HCC-78; first compound 0.01 µM) was 0.624 and the relative viability (HCC-78; first compound 0.03162 µM) was 0.553. The relative viability (HCC-78; first compound 0.1 µM) was 0.581, the relative viability (HCC-78; first compound 0.3162 µM) was 0.519 and the relative viability (HCC-78; first compound 1 µM) was 0.345. It also gave a relative viability (NCI-H1993; first compound 0.01 µM) of 0.743, a relative viability (NCI-H1993; first compound 0.03162 µM) of 0.678 and a relative viability (NCI-H1993; first compound 0.1 µM) of 0.666. It also gave a relative viability (NCI-H1993; first compound 0.3162 µM) of 0.73, a relative viability (NCI-H1993; first compound 1 µM) of 0.717 and a relative viability (HCC-15; first compound 0.01 µM) of 0.886. The relative viability (HCC-15; first compound 0.03162 µM) was 0.918, the relative viability (HCC-15; first compound 0.1 µM) was 0.915 and the relative viability (HCC-15; first compound 0.3162 µM) was 0.93. It also gave a relative viability (HCC-15; first compound 1 µM) of 0.985, a relative viability (PC-14; first compound 0.01 µM) of 0.975 and a relative viability (PC-14; first compound 0.03162 µM) of 0.994. It also gave a relative viability (PC-14; first compound 0.1 µM) of 0.995, a relative viability (PC-14; first compound 0.3162 µM) of 0.891 and a relative viability (PC-14; first compound 1 µM) of 0.425. For the same molecule, the relative viability (NCI-H358; first compound 0.01 µM) was 0.695, the relative viability (NCI-H358; first compound 0.03162 µM) was 0.745 and the relative viability (NCI-H358; first compound 0.1 µM) was 0.711. For the same molecule, the relative viability (NCI-H358; first compound 0.3162 µM) was 0.617, the relative viability (NCI-H358; first compound 1 µM) was 0.42 and the relative viability (UMC-11; first compound 0.01 µM) was 1.03. For the same molecule, the relative viability (UMC-11; first compound 0.03162 µM) was 0.956, the relative viability (UMC-11; first compound 0.1 µM) was 0.976 and the relative viability (UMC-11; first compound 0.3162 µM) was 0.689. The relative viability (UMC-11; first compound 1 µM) was 0.551, the relative viability (NCI-H1651; first compound 0.01 µM) was 1.03 and the relative viability (NCI-H1651; first compound 0.03162 µM) was 0.904. For the same molecule, the relative viability (NCI-H1651; first compound 0.1 µM) was 0.902, the relative viability (NCI-H1651; first compound 0.3162 µM) was 0.702 and the relative viability (NCI-H1651; first compound 1 µM) was 0.358. For the same molecule, the relative viability (NCI-H1915; first compound 0.01 µM) was 1.09, the relative viability (NCI-H1915; first compound 0.03162 µM) was 1.1 and the relative viability (NCI-H1915; first compound 0.1 µM) was 1.19. The relative viability (NCI-H1915; first compound 0.3162 µM) was 1.2 and the relative viability (NCI-H1915; first compound 1 µM) was 1.06.
